Measurements: patent US7846901B2, “Method for inhibiting or treating intestinal damage caused by radiotherapy or chemotherapy comprising administering substance-P” (University-Industry Cooperation Group of Kyunghee University, priority 2007, dated 2010)
Entries after “also recorded” stand apart in the source; their conditions may differ. Where no end group is shown, it is not given here.

Experiments:
Type in all cases: in vivo, C57b1/6 mice
[1] = tested on: crypt cells and villi of small intestine; test: H&E staining: crypt cell counts and villous heights after gamma ray irradiation
Description: (§1) 8-week-old C57b1/6 mice (Central Lab Animal Inc., Seoul, Korea) were irradiated with gamma rays to establish an animal model of gastrointestinal damage, and gastrointestinal protective and regenerative effects of Substance-P were then examined.
(§2) For this purpose, C57b1/6 mice were divided into two groups, an experimental group and a control group, each consisting of 5 animals (n=5). 100 nM of Substance-P (Cat. No. 05-23-0600, Calbiochem) was injected to the experimental group mice via tail vein, 24 hours prior to gamma ray irradiation. 24 hours later, animals were irradiated with a gamma irradiator at a dose of 7.6 Gy. Immediately after gamma ray irradiation, 100 nM of Substance-P was intravenously injected once more into animals of the experimental group. The control group was given PBS.
(§3) 4.5 hours, 3 days, and 7 days later, mice of each group were euthanized by CO2 asphyxiation and then received abdominal incision. Small intestines were isolated and fixed in a 3.7% formaldehyde solution for tissue fixation, for 1 to 2 days. Following the tissue processing process, the tissues were hardened in a paraffin block. The formalin-fixed paraffin tissues were sectioned to a 5 μm thickness using a microtome and then attached to a coated slide glass which was then dried, followed by TUNEL staining, Brd-U immunostaining and H&E staining. For Brd-U immunostaining, 2 hours prior to sacrifice of mice, 50 mg/kg of 5-bromo-2-deoxyuridine (Brd-U, Cat. No. B-9285, Sigma) was introduced into dividing cells by peritoneal injection.
After the tissue section slide was H&E-stained and photographed, crypt cell counts and villous heights were measured and averaged, respectively.

[2] = tested on: crypt cells; test: TUNEL assay for apoptosis of crypt cells after gamma ray irradiation
Description: as §1, §2
4.5 hours, 3 days, and 7 days later, mice of each group were euthanized by CO2 asphyxiation and then received abdominal incision. […]
Dead cells were detected by fluorescence labeling of damaged DNA molecules through TUNEL assay using an In Situ Cell Death Detection Kit (Cat. No. 1 684 795, Roche Molecular Biochemicals).
The tissue section slide was deparaffinized with xylene and hydrated in alcohol. […] Nuclear staining was carried out using 4′,6-diamidino-2-phenylindole (DAPI, Cat. No. D-9542, Sigma) and the stained tissue was examined in a green field of 515 to 565 nm under a fluorescence microscope.

[3] = tested on: crypt cells; test: Brd-U immunohistochemical staining for proliferation of crypt cells after gamma ray irradiation
Description: as §1, §2
as §3, with “Small” for “4.5 hours, 3 days, and 7 days later, mice of each group were euthanized by CO2 asphyxiation and then received abdominal incision. Small”
Proliferative effects of Substance-P on crypt cells were examined by Brd-U immunohistochemical staining.
The tissue section slide was deparaffinized with xylene and hydrated in alcohol. The tissue section was pretreated with 2N HCl for 30 min, and endogenous peroxidase activity was blocked with addition of H2O2 for 10 min. The tissue section was treated with 0.3% Triton X-100 for 5 min to increase cell permeability. Then, 2% serum in a Vector ABC kit (PK-6100, Vector Laboratories Inc.) was added to block the cells. BrdU antibodies (Cat. No. 1 170 376, Roche Molecular Biochemicals) and 2% serum were diluted in a ratio of 6:100, followed by reaction at room temperature for 1 hour. […]

[4] = radiation-induced gastrointestinal damage in mice, vs non-treated control group

Substance-P (RPKPQQFFGLM-NH2; ends and bridges not checked; UniProt P20366 58-68, looked up) [11-amino acid neuropeptide; Cat. No. 05-23-0600, Calbiochem]
villous atrophy (villous height) ([1]; Day 3 after irradiation, vs group without Substance-P): less villous atrophy
number of viable crypt cells (crypt cell survival) ([1]; Days 1, 3 and 7 after irradiation (FIG. 3), vs group without Substance-P): higher number of viable crypt cells
recovery of damaged crypt cells and villi / recovery time from gastrointestinal damage, summary statement [1, 4]: faster recovery of damaged crypt cells and villi to a normal state; also recorded: recovery time from gastrointestinal damage is also shortened
apoptosis of crypt stem cells (TUNEL) ([2]; 4.5 hours after 7.6 Gy gamma rays, Substance-P 100 nM i.v. 24 h before and immediately after irradiation, vs control group (PBS)): significant reduction in apoptosis of crypt stem cells
apoptotic rate of crypt cells, summary statement [2, 4]: significantly lower apoptotic rate of crypt cells; also recorded: apoptosis of stem cells is decreased
BrdU staining of dividing crypt cells ([3]; Day 1 after gamma ray irradiation, with vs without Substance-P): no significant difference in staining of cells
BrdU staining of dividing crypt cells ([3]; Day 3 after gamma ray irradiation): intense staining in large numbers of cells
gastrointestinal recovery through crypt hyperplasia, conclusion from BrdU staining ([3]; after gamma ray irradiation (FIG. 2)): earlier gastrointestinal recovery
